Consider one compound from patent US12661362B2, “Methods for the prevention and treatment of hearing loss” (Ting Therapeutics LLC, priority 2020, dated 2026).

For one data set, the system named is SHP77. As to the kind of experiment: Survival of SHP77 cells with or without Cisplatin and Niclosamide. Type of data set: cell-based. The conditions noted are these: 10 nM. On the procedure: Now referring to FIG. 8, In vitro model of […] incubated with or without Cisplatin and 10 nM of Niclosamide. Cells were maintained in culture with the aid of Matrigel as previously described in Kelley and Driver, Curr. Protoc. Neurosci. Ch.(4); Unit(4); 34.1-10 (2010). After cells had been in culture for 1 d, growth medium DMEM (12430-054; GIB CO Life Technologies, with 1% FBS [16000-044; GIB CO Life Technologies] and 50 μg/ml ampicillin) with or without test compounds may be added for preincubation for 1 hr. at 37° C. in 5% Co2, and may be followed by incubation with 50 μM Cisplatin (479306; Sigma-Aldrich) with or without the test compound in growth medium for 24 hr. at 37° C. A Cisplatin concentration of 50 μM may be used for the explant assay due to its consistent showing of decreases outer hair cells by about −40% in the mouse cochlea after 24 hours. Cochlea may be fixed in 4% PFA and stained for actin with Alex Fluor 568 phalloidin to determine the viability of the HCs. Cochlea may also be stained by DAPI, FM1-43 dye uptake, and immunohistochemical staining for known HC markers (including parvalbumin and myosin 7a. Cochlea may be imaged by confocal microscopy. Two 160-μm regions from middle turns may be photographed, and the number of intact HCs can be counted.

For data set [1] the following is noted: following 2,000 mg oral use; cited from earlier work.
A further data set relates to zebrafish neuromast HCs. Put plainly: Zebrafish lateral-line neuromast hair cell protection against Cisplatin. Format: in vivo, Danio rerio. On the procedure: Danio rerio experimental larvae were obtained by pair mating of adult fish maintained at Creighton University by standard methods approved by the Institutional Animal Care and Use Committee. […] We used Tg(pou4f3:mGFP) expressing a membrane bound GFP in HCs. Experimental fish were maintained at 28.5° C. in E3 media (5 mM NaCl, 0.17 mM KCl, 0.33 mM CaCl2) and […], pH 7.2). Animals were cryoanaesthetized after drug treatment and prior to fixation. The neuromasts inspected, S03 and 01-2, were part of the cranial system and included the otic, middle, and opercular neuromasts.
Subsequently, animals were transferred to E3 water for 5 hours and fixed in 4% paraformaldehyde (PFA) overnight (26). Neuromast HCs were immunolabeled with anti-otoferlin (HCS-1, DSHB) and anti-GFP (NB100-1614, Novus Biologicals). These two markers were used to detect and count neuromast HCs to reduce the chances of missing some of the HCs after the treatment since we previously noticed that incubation with the compounds can affect GFP expression more difficult to detect under a fluorescence microscope. Otic, middle, and opercular neuromasts were identified, and HCs at S03 (supraorbital line neuromast) and 01-2 (Otic line neuromasts) were manually counted using a Zeiss AxioSkop 2 fluorescence microscope with a 40× oil objective. Compounds were then evaluated on efficiency and potency, with the top-rated compounds showing high protection at lower concentrations.

Another data set has as its system FVB/NJ mice. Put plainly: Cisplatin-induced hearing loss in FVB/NJ mice (ABR, DPOAE, wave-1, hair cell count). Type of data set: in vivo, mouse. The source says: Now referring to FIGS. 4A-4F Niclosamide attenuates Cisplatin-induced hearing loss in FVB/NJ mice. Mice: Procedures used with mice were approved by the Institutional Animal Care and Use Committee (IACUC) at the Creighton University. For functional assessments including Cisplatin and noise exposure experiments 5 to 7-week-old FVB/NJ mice obtained from Jackson Laboratory (Bar Harbor, ME, USA) were used, with a mix of males and females across experiments. For the Cisplatin and noise studies, FVB/NJ mice were treated with 10 mg/kg Niclosamide, through intraperitoneal (IP) injection. Niclosamide, was dissolved in 1% DMSO in normal saline (0.9% NaCl solution) and vortexed multiple times before injections. Treatment started 24 hours before the Cisplatin or noise-exposure and continued once daily for 3 more days. Cisplatin was injected IP at 30 mg/kg divided into 2 doses per day. Animals were given 1 mL warm sterile normal saline subcutaneously twice a day before and for 7 days after Cisplatin treatment to prevent dehydration.
Now referring to FIG. 4A, ABR tests were performed 2-3 days before Cisplatin exposure, and 5 days post-Cisplatin exposure. The experimental groups included: Cisplatin and 1% DMSO, Cisplatin and Niclosamide, Niclosamide, only, and age-matched controls receiving normal saline. For the noise experiment, auditory tests were performed 2-3 days prior to noise exposure (paradigm described below), at post-exposure day-1 to monitor temporary threshold shift (TTS) and at post-exposure day-14 to monitor permanent threshold shift (PTS). Experimental groups included: noise-exposure and normal saline, noise-exposure and Niclosamide, Niclosamide-only, and age-matched controls. Following the final auditory function measurements, mice were euthanized, and cochleae were collected for morphological assessment. Based on the results of FVB/NJ ABR/DPOAE threshold variances and power analysis, ten FVB/NJ mice per group (5 of each sex) were used in this study.
Now referring to FIG. 4B measurement of the distortion products otoacoustic emission (DPOAE) thresholds at frequencies ranging from 8 to 40 kHz in cisplatin, niclosamide, control, and cisplatin-niclosamide treated-mice.
Now referring to FIG. 4C-4D, mean wave-1 amplitudes at 8, 16, 32, and 40 kHz was measured in the control and Niclosamide-treated mice before Cisplatin injection and at Day 5 post-Cisplatin injection. The ABR wave-1 amplitude represents the summed activity of the cochlear nerve. Amplitudes from the 85 dB SPL stimuli were compared between groups in the baseline ABR measurements using a two-factor ANOVA (group x frequency), and no group differences were detected (P>0.05).
Now referring to FIGS. […], representative samples of the mouse HCs at 32 kHz, the most protected frequency region shown by ABR measurement (FIG. 4E). […] Niclosamide protects NMDA-induced hair cell loss in zebrafish. Application of the N-methyl-d-aspartate (NMDA) to zebrafish neuromast HCs has also been used to mimic glutamate excitotoxicity associated with noise exposure (Katie S. Kindt and Lavinia Sheets, 2018). The results of the HC count following exposure of zebrafish to 300 μM NMDA led to hair-cell loss.

`O=C(Nc1ccc([N+](=O)[O-])cc1Cl)c1cc(Cl)ccc1O` [Niclosamide, 5-chloro-N-(2-chloro-4-nitrophenyl)-2-hydroxy-benzamide]: in the data set on SHP77, the “effect on Cisplatin-tumor killing activity” value was “did not affect Cisplatin-tumor killing activity”. For the same compound, the Cmax in data set [1] is 18 µM. For the same compound, the “highest level of protection of neuromast HCs” value in the data set with zebrafish neuromast HCs (0.002 μM, lowest concentration tested, normalized to Cisplatin only (0%) and DMSO (100%)) was around 50%. In the data set on zebrafish neuromast HCs (0.002-13.3 μM, Cisplatin-treated zebrafish), the “hair cell loss (fluorescent staining of neuromasts)” value is reported as “reduce hair cell loss”. For the same compound, the “Cisplatin damage in zebrafish HCs at S03 and O1-2” value in the data set on zebrafish neuromast HCs (pretreated with 0.002 μM) is reported as “significantly reduced Cisplatin damage”. The “ABR threshold shifts versus Cisplatin-only mice” value in the data set with FVB/NJ mice (8, 12 and 32 kHz, 10 mg/kg IP, Cisplatin 30 mg/kg) was “significantly reduced ABR threshold shifts”. Also, the “DPOAE threshold shifts versus Cisplatin-only mice” value with FVB/NJ mice (16 and 32 kHz, 10 mg/kg IP, Day 5 post-Cisplatin) is reported as “significantly reduced DPOAE threshold shifts”. In addition, in the data set on FVB/NJ mice (30 kHz region), the “HC survival versus Cisplatin group” value was “more HC survival”. Further, the “outer hair cell quantification, protection against Cisplatin-induced hair cell loss” value with FVB/NJ mice (32 kHz region, cotreatment) is on record as “full protection”. The “ABR wave-1 amplitudes versus Cisplatin only group” value in the data set on FVB/NJ mice (all tested frequencies at 85 dB SPL, Day 5 post-Cisplatin) is “higher amplitudes”.
